Test results as given in patent publication US9464106B2, “Oligonucleotides useful for detecting and analyzing nucleic acids of interest” (Exiqon A/S, priority 2002, dated 2016).
l = locked nucleic acid (LNA); [5mC] = 5-methylcytosine; d = 2'-deoxy (DNA)

Tested on: yeast HSP78 (YDR258C) sequence
Experiment: Duplex melting temperatures of HSP78 25-mer capture probes (UV spectrophotometer)
Conditions: 25-mer capture probe duplex with complementary target; design PM = perfectly matched, MM = single mismatch; DNA, LNA_T (T) or LNA_TC (TC) substituted

Substance | Average duplex melting temp. [°C]
12717 (DNA TCAGTTAGCCAAACCTTCGCTTCAT; sugars from the 5' end ldddlldddddddddlldddllddd, backbone not given here) [compound 12717] | 69.4
12823 (DNA CCCAACTTTGTGTCGTTTAATAAAA; sugars from the 5' end llldddllddldlddlllddldddd, [5mC] at 1, 2, 3, backbone not given here; further chemistry not fully specified) [compound 12823] | 74.8
12695 (DNA AGACGTACAGCAACAGAAATAGCAG; DNA, backbone not given here) [compound 12695] | 61.2
12771 (DNA CACTCTAACAGTTTCGCCGTTTCTA; DNA, backbone not given here) [compound 12771] | 66.3
12812 (DNA GATGAACTCAGGTGGATAGGATCTT; sugars from the 5' end ddldddllldddldddlddddllld, all C 5-methyl, backbone not given here; further chemistry not fully specified) [compound 12812] | 77.3
12719 (DNA AGACGTACAGCAACAGAAATAGCAG; sugars from the 5' end d5 l1 d13 l1 d5, backbone not given here) [compound 12719] | 65
12765 (DNA TCAGTTAGCCAATCCTTCGCTTCAT; DNA, backbone not given here; further chemistry not fully specified) [compound 12765] | 66.1
12774 (DNA ATTGACCTCAAAACTTTCTTGGATA; DNA, backbone not given here; further chemistry not fully specified) [compound 12774] | 61.8
12776 (DNA ACCATCATCACCCAACTTTGTGTCG; DNA at ACG, LNA at T, backbone not given here; further chemistry not fully specified) [compound 12776] | 79.2
12797 (DNA AAAACGACAGCATAAGGCTTTCTTC; DNA at ACG, LNA at T, backbone not given here; further chemistry not fully specified) [compound 12797] | 71.7
12692 (DNA GATGAACTCAGGAGGATAGGATCTT; DNA, backbone not given here) [compound 12692] | 58.2
12740 (DNA GATGAACTCAGGAGGATAGGATCTT; sugars from the 5' end ddldddllldddddddlddddllld, all C 5-methyl, backbone not given here) [compound 12740] | 70.4
12758 (DNA CCGATTAAACGAGAGACAGTATGCT; DNA, backbone not given here; further chemistry not fully specified) [compound 12758] | 65.4
12748 (DNA TCAATGGCCTTGGACCATATAATTG; sugars from the 5' end llddlddldllddddldldlddlld, [5mC] at 2, 8, 16, backbone not given here) [compound 12748] | 74.8
12727 (DNA CCCAACTTTGTGACGTTTAATAAAA; DNA at ACG, LNA at T, backbone not given here) [compound 12727] | 66.5
12697 (DNA ATAAAGCTGGCATTAGGTCTCTTTT; DNA, backbone not given here) [compound 12697] | 58.4
12759 (DNA ATCAAATAGGAATTCAGCTAAAGCC; DNA, backbone not given here; further chemistry not fully specified) [compound 12759] | 61.5
12743 (DNA AGACGTACAGCAACAGAAATAGCAG; sugars from the 5' end dddldldlddlddddddddlddldd, [5mC] at 4, 8, 11, 23, backbone not given here) [compound 12743] | 73.6
12744 (DNA TTTGGTAGCACGTCAAGCTTAGTAT; sugars from the 5' end ldlddlddldlddddddldlddldd, [5mC] at 9, 11, 18, backbone not given here) [compound 12744] | 73.3
12781 (DNA GACAGCCTCAGTTAATTGGCCACCA; sugars from the 5' end dddddddlddddlddlldddddddd, backbone not given here; further chemistry not fully specified) [compound 12781] | 75.4
12682 (DNA TGGCCTAGGGAAACGGTCAGCTTAC; DNA, backbone not given here) [compound 12682] | 65.2
12686 (DNA CCGATTAAACGACAGACAGTATGCT; DNA, backbone not given here) [compound 12686] | 57.1
12737 (DNA AAATAGCAGCAAAGGCCTCGTCTTG; sugars from the 5' end dddlddlddldddddldlldlddld, [5mC] at 7, 10, 16, 19, backbone not given here) [compound 12737] | 79.3

Substance | Average duplex melting temp. [°C]
12696 (DNA TTTGGTAGCACGTCAAGCTTAGTAT; DNA, backbone not given here) [compound 12696] | 59.2
12704 (DNA ACCATCATCACCGAACTTTGTGTCG; DNA at ACG, LNA at T, backbone not given here) [compound 12704] | 74
12700 (DNA TCAATGGCCTTGGACCATATAATTG; DNA, backbone not given here) [compound 12700] | 59.5
12715 (DNA GCAATGGCCTCGACTTGGCCAACGA; DNA at ACG, LNA at T, backbone not given here) [compound 12715] | 73.7
12725 (DNA AAAACGACAGCAAAAGGCTTTCTTC; sugars from the 5' end d18 l3 d1 l2 d1, backbone not given here) [compound 12725] | 65.9
12811 (DNA GCAATGGCCTCGTCTTGGCCAACGA; sugars from the 5' end d10 l1 d1 l2 d11, [5mC] at 11, 14, backbone not given here; further chemistry not fully specified) [compound 12811] | 79.3
12775 (DNA CCCAACTTTGTGTCGTTTAATAAAA; DNA, backbone not given here; further chemistry not fully specified) [compound 12775] | 61
12768 (DNA TTTGGTAGCACGACAAGCTTAGTAT; DNA, backbone not given here) [compound 12768] | 65.7
12793 (DNA ATAAAGCTGGCAATAGGTCTCTTTT; sugars from the 5' end dldddddldddddldddldldllld, backbone not given here; further chemistry not fully specified) [compound 12793] | 74.3
12713 (DNA AAATAGCAGCAAAGGCCTCGTCTTG; DNA at ACG, LNA at T, backbone not given here) [compound 12713] | 70.4
12770 (DNA TTTTTCGGCCAAACGATCTTGAATT; DNA, backbone not given here; further chemistry not fully specified) [compound 12770] | 65
12767 (DNA AGACGTACAGCATCAGAAATAGCAG; DNA, backbone not given here; further chemistry not fully specified) [compound 12767] | 66.6
12794 (DNA TTTTTCGGCCAAACGATCTTGAATT; sugars from the 5' end ldllldddddddddddldlldddld, backbone not given here; further chemistry not fully specified) [compound 12794] | 71
12731 (DNA TTGGAAACATCGCGGTGCGCTTTTT; sugars from the 5' end lldddddlddlddddldldddldld, [5mC] at 8, 11, 18, backbone not given here) [compound 12731] | 72
12701 (DNA AAAACGACAGCAAAAGGCTTTCTTC; DNA, backbone not given here) [compound 12701] | 58.8
12738 (DNA ATAGCAGCAATGCCCTCGTCTTGGC; sugars from the 5' end dlddldddddlddddldddldlddd, [5mC] at 5, 20, backbone not given here) [compound 12738] | 71.5
12769 (DNA ATAAAGCTGGCAATAGGTCTCTTTT; DNA, backbone not given here; further chemistry not fully specified) [compound 12769] | 63.6
12716 (DNA GATGAACTCAGGAGGATAGGATCTT; sugars from the 5' end ddlddddlddddddddlddddldld, backbone not given here) [compound 12716] | 64.9
12681 (DNA CAATGATCGTGTAACGGAAATCAAC; DNA, backbone not given here) [compound 12681] | 59.3
12688 (DNA GACCTAAGAACAAAAAGCTGGCAAT; DNA, backbone not given here) [compound 12688] | 58.2
12709 (DNA GACAGCCTCAGTAAATTGGCCACCA; sugars from the 5' end d7 l1 d7 l2 d8, backbone not given here) [compound 12709] | 68.8
12786 (DNA ATAGCAGCAATGGCCTCGTCTTGGC; DNA at ACG, LNA at T, backbone not given here; further chemistry not fully specified) [compound 12786] | 80.1
